Results from paper PMC13059705, “Peptidoglycan DD-peptidases have distinct activities that impact fitness of Acinetobacter baumannii” (mBio, 2026).

Assays:
[1] = target: T1, PBP6b (Acinetobacter baumannii, UniProt A0ABX6CI93); assay: bocillin-binding assay with SDS-PAGE; settings: covalent; labelled compound; used to confirm identity of the purified protein
T1 construct: gene dacD; Triton X-100 extraction, Ni-NTA
T1 sequence (A0ABX6CI93 22-439): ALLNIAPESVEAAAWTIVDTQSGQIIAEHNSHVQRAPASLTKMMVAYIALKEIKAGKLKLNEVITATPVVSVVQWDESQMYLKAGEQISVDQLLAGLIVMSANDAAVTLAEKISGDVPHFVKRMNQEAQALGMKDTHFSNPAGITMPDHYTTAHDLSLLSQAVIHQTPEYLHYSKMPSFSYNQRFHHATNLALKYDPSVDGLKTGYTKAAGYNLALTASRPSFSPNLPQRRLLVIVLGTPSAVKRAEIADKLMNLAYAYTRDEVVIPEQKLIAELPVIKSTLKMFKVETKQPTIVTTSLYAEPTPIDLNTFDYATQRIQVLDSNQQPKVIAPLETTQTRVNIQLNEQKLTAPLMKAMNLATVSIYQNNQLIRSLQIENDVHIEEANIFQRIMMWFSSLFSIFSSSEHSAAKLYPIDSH

[2] = target: T2, PBP5/6a (Acinetobacter baumannii, UniProt G1C735); assay: bocillin-binding assay with SDS-PAGE; settings: covalent; labelled compound; used to confirm identity of the purified protein
T2 construct: gene dacC; Triton X-100 extraction, Ni-NTA
T2 sequence (G1C735 20-382): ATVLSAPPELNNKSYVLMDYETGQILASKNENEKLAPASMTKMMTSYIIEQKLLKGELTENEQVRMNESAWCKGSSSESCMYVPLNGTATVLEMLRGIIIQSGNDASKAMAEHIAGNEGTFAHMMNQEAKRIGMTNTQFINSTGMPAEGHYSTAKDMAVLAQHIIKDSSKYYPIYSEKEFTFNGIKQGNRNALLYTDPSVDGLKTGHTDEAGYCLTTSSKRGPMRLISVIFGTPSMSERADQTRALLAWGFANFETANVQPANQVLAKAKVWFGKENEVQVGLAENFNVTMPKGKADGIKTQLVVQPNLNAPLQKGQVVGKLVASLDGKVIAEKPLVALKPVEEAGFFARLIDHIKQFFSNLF

Cc1cc(C)n2c1C=C1C=CC(CCC(=O)Nc3ccc(OCC(=O)N[C@@H]4C(=O)N5[C@@H]4SC(C)(C)[C@@H]5C(=O)O)cc3)=[N+]1[B-]2(F)F [bocillin]
bocillin-binding assay with SDS-PAGE [1]: Protein purity and identity were confirmed by SDS-PAGE and bocillin-binding assays | bocillin-binding assay with SDS-PAGE [2]: Protein purity and identity were confirmed by SDS-PAGE and bocillin-binding assays
